Consider one substance from patent US20080039442A1, “Compounds With Kv4 Ion Channel Activity” (Devgen NV, priority 2004, published 2008).

Usually IC50 stands for the concentration that gives 50% inhibition.

The target of one series is hERG potassium channel (Homo sapiens, UniProt Q12809).
For series [1], the system named is isolated guinea pig right ventricular papillary muscle. Briefly: Ex-vivo functional refractory period in isolated guinea pig papillary muscle. As to conditions: conc 10^−5 mol/l. The text has this:
(§1) The compounds were checked for their effect on the force of contraction, stimulation threshold and for the Functional Refractory Period (FRP) in isolated rat left atria (Rat LA). Rat left atria functionally express the Kv4.3 ion channel, producing the Ito current of the action potential. […] The guinea pig action potential is dominated by hERG like ion channels for the refractory currents. Consequently, activity of hERG channels in vivo should be seen in GP papillary muscle preparations.
Method: Rat LA (Same Method Applies to GP Pap. Muscle)
Left atria were mounted vertically in a two-chambered organ bath containing 100 ml of buffer solution (in mM: NaH2PO4 0.6, MgSO4 0.6, KCl 4.7, NaHCO3 25, glucose 4.5, NaCl 120, CaCl2 2.4). The solution was saturated with and circulated by a gas mixture containing 95% O2 and 5% CO2. The temperature was kept constant at 30° C. […] The isometric force of the preparations was measured by force transducers, connected to amplifiers, documented by a pen recorder and fed into a computer for evaluation. Force of contraction (FC), threshold stimulus (TS) and the functional refractory period (FRP) were measured at baseline (pre), 20 min after addition of compound, and after washout at the end of the experiment. Threshold stimulus, representing excitability of the tissue, was assessed by varying the voltage applied for electrical stimulation. […]

Series [2] concerns conscious telemetric mice. Put plainly: Telemetric ECG in conscious mice, consecutive i.p. dosing. The class given is in vivo, mice (NRMI). As for the experimental part: Male mice (NRMI) were anesthetized with a gas mixture of isoflurane, nitrous oxide and oxigen. Leads connected to a telemetry transmitter (TA10EA-F20, DSI, St. Paul, USA) were fixed by suture in the xiphoid and ventral neck region. The telemetry transmitter was placed under the skin on the back. Wounds were closed in layers and the animals were allowed to recover for at least 1 week.
On the day of the experiment the animals receive consecutive doses of vehicle i.p. at 60 min dosing intervals. ECG tracings (12 s duration) was recorded using the Data Sciences A.R.T. system. After completion of the experiment ECGs were analyzed automatically by Data Sciences ECG software (DSI, St. Paul, USA). QT and QRS intervals were measured manually in the stored ECGs. QTc was calculated from the QT interval and the corresponding heart rate using Bazett's formula. Heart rate was taken from the online analysis, given by the DSI Labpro and DSI A.R.T. systems (DSI, St. Paul, USA). Finally, ECG intervals were transferred to an Excel spreadsheet, checked for plausibility, and converted into 15 min averages.

For the next series, the system named is isolated rat left atria. Briefly: Ex-vivo functional refractory period in isolated rat left atria. The conditions noted are these: conc 10^−5 mol/l.
From the text: as §1
Left atria were mounted vertically in a two-chambered organ bath containing 100 ml of buffer solution (in mM: NaH2PO4 0.6, MgSO4 0.6, KCl 4.7, NaHCO3 25, glucose 4.5, NaCl 120, CaCl2 2.4). […] The isometric force of the preparations was measured by force transducers, connected to amplifiers, documented by a pen recorder and fed into a computer for evaluation. Force of contraction (FC), threshold stimulus (TS) and the functional refractory period (FRP) were measured at baseline (pre), 20 min after addition of compound, and after washout at the end of the experiment. Threshold stimulus, representing excitability of the tissue, was assessed by varying the voltage applied for electrical stimulation. […] The functional refractory period, representing the time needed for repolarization, was assessed by applying extra stimuli at varying time intervals from the preceding regular pacing stimulus. […]

hERG potassium channel, sequence (Q12809 whole entry): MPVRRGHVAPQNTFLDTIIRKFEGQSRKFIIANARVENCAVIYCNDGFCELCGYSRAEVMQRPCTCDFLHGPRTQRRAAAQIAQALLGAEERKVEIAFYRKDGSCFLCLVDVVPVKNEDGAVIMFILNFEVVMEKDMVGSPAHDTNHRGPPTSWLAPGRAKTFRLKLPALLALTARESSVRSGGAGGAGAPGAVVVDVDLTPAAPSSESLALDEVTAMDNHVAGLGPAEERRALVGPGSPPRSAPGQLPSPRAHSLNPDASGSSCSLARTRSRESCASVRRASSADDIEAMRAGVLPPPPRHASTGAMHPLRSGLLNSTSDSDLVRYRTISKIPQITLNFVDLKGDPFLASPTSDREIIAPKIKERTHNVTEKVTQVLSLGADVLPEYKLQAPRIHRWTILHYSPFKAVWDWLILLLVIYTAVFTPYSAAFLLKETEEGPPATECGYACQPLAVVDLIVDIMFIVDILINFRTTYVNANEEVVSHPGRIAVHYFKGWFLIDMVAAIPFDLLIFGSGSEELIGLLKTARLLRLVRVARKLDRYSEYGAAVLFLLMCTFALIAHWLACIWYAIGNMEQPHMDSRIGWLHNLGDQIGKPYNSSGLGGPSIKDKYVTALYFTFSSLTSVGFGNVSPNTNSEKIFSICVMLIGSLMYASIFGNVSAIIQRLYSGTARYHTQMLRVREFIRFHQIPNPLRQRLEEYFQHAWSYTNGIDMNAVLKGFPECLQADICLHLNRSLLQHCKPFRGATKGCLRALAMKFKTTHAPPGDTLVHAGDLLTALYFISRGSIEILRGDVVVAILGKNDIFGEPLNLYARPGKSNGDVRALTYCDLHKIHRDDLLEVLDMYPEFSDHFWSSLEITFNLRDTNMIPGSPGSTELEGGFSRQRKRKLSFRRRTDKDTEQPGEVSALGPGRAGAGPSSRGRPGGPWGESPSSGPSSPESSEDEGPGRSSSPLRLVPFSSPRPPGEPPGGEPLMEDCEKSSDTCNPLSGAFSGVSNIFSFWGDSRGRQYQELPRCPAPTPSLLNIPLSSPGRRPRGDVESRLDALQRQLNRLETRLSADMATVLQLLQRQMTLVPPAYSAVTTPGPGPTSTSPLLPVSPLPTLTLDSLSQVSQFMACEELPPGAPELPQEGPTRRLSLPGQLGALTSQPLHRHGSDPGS
From the text for hERG potassium channel: For this experiment HEK 293 T-REx HERG cells (#23) were used. This cell line made by IonGate is characterized by the inducible expression of the hERG gene. The T-REx™ System (Invitrogen, Karlsruhe, Germany) is a tetracycline-regulated mammalian expression system that uses regulatory elements from the E. coli Tn10-encoded tetracycline (Tet) resistance operon. In the absence of Tet the expression is repressed. Tetracycline regulation in the T-REx™ System is based on the binding of tetracycline to the Tet repressor and derepression of the promoter controlling expression of the hERG gene. Addition of Tet to the cell culture media results in expression of the hERG potassium channel.
To construct the HEK 293 T-REx HERG cell line, the hERG gene was ligated into the inducible expression vector pcDNA4/TO (→pc4TO-HERG) and transfected into HEK 293 T-REx cells (this cell line stably expresses the Tet repressor and was purchased at Invitrogen). Stable cell clones were isolated after selection with Blasticidin (5 μg/ml) and Zeocin™ (300 μg/ml). The clones were electrophysiological characterized after induction with 1 μg/ml Tet.
Experiments were performed using the patch clamp set-up. Technical equipment needed for manipulation of the cells was placed on a vibration-isolated table and shielded with a Faraday cage to minimize electrical noise. The amplifier and control system were placed in a rack outside the Faraday cage. The system consisted of an EPC9 or EPC10 patch clamp amplifier (HEKA, Lambrecht, Germany), and the perfusion system DADVC8 (ALA Scientific, New York, USA) controlled by the Pulse software package (HEKA, Lambrecht, Germany) installed on a personal computer.
The cells used for this experiment were kept in continuous culture under standard conditions (37° C., air supplemented with 5% CO2). The HEK 293 T-REx HERG cells were kept in minimal essential medium (MEM) supplemented with 100 U/ml Penicillin, 100 μg/ml Streptomycin, 10% fetal calf serum (FCS), 1% non-essential amino acids (NEAA), 2.5 μg/ml amphotericin, 300 μg/ml Zeocin™ and 5 μg/ml Blasticidin. Cells were passed every 3-4 days after detachment using a Trypsin solution. The quality of the cultured cells was guaranteed by vitality and contamination tests.
At least 18 hours prior to electrophysiological experiments the cells were detached by application of iced PBS (phosphate buffered saline) or Trypsin and replated on cover slips. 1 μg/ml Tet was added to the cells to induce hERG expression.
Activity of the cardiac hERG channel was investigated using the patch clamp technique in its whole cell mode. This means that the current needed for clamping the whole cell expressing the K^+-channel protein to a specific potential was measured. The pipettes used for patch clamping were made of borosilicate glass. Measurements were performed at room temperature (20-25° C.). In each experiment (i.e. each cell) only one concentration of the compound was investigated—no cumulative dosages were performed. Each cell acted as its own control. The effect of the compounds on hERG mediated currents was investigated at one concentration (10 μM) with two replicates each (c=1, n=2).
Between voltage pulses the cell was clamped to a holding potential of −80 mV (inside).
(b) and (c) were used to characterize the properties of the hERG channel and to check the quality of the individual patch clamp experiment (voltage control). Each test protocol consisted of 6 segments.

For the substance “5-chloro-benzofuran-2- carboxylic acid 2,4- dimethoxy- benzylamide [Compound 2]”, on hERG potassium channel, the IC50 turned out to be 16.7 µM and the “Ratio hERG/Kv4.3” value was found to be 9.6. The “dFRP Guinea Pig” value in series [1] was determined as 0 ms. For the same substance, the “maximum prolongation of QTc” value in series [2] (15 μmol/kg i.p., highest dose tested, Bazett, n=5) is given as 33 ms. For the same substance, the “maximum prolongation of QT” value in series [2] (15 μmol/kg i.p., highest dose tested, n=5) stood at 12 ms. In series [2] (3-15 μmol/kg i.p.), the “Heart rate (result in words)” value was “minor and not significant decrease”; the “Locomotor activity (result in words)” value is listed as “reproducible rise after each of the subsequent injections”; the “PQ and QRS (result in words)” value is “did not show dose-dependent changes”. The “dFRP Rat” value in the series with isolated rat left atria is given as 17 ms.
